Data published in ChEMBL document CHEMBL2424516, “Facile synthesis of novel quinoline derivatives as anticancer agents” (2013).
Calls of active or inactive are those of the source. No cut-off for these calls is given here.

How the values were obtained:
HeLa = experiment: Cytotoxicity against human HeLa cells by SRB assay; format: functional
MCF7 = experiment: Cytotoxicity against human MCF7 cells by SRB assay; format: functional; conditions: for CC50: read-out: LC50 (the source's name)
Escherichia coli = experiment: Induction of Escherichia coli DNA cleavage at 100 ug after 2 hrs by agarose gel electrophoresis

Row | Compound | GI50 (HeLa) [µM] | LC50 (concentration killing 50% of cells) (HeLa) [µM] | TGI (HeLa) [µM] | GI50 (MCF7) [µM] | TGI (MCF7) [µM] | CC50 (MCF7) [µM] | Activity (Escherichia coli)
1 | CC(=O)NC1=NN(C(C)=O)C(c2cc3ccc(C)cc3n3nnnc23)S1 (centres undefined) | 83.3 | > 100 | > 100 | 98.9 | > 100 | > 100 | –
2 | CC(=O)NC1=NN(C(C)=O)C(c2cc3cccc(C)c3n3nnnc23)S1 (centres undefined) | 85.1 | > 100 | > 100 | 95.3 | > 100 | > 100 | Active
3 | COc1cccc2cc(C3SC(NC(C)=O)=NN3C(C)=O)c3nnnn3c12 (centres undefined) | > 100 | > 100 | > 100 | > 100 | > 100 | > 100 | Active
4 | COc1ccc2c(c1)cc(C1SC(NC(C)=O)=NN1C(C)=O)c1nnnn12 (centres undefined) | > 100 | > 100 | > 100 | > 100 | > 100 | > 100 | Active
5 | COc1cccc2c1C(=O)c1c(O)c3c(c(O)c1C2=O)C[C@@](O)(C(=O)CO)C[C@@H]3O[C@H]1C[C@H](N)[C@H](O)[C@H](C)O1 [DOXORUBICIN] | < 0.1 | – | > 0.1 | < 0.1 | > 0.1 | > 100 | –
6 | CC(=O)NC1=NN(C(C)=O)C(c2cc3ccccc3n3nnnc23)S1 (centres undefined) | > 100 | > 100 | > 100 | > 100 | > 100 | > 100 | Active
7 | COc1ccc2cc(C3SC(NC(C)=O)=NN3C(C)=O)c3nnnn3c2c1 (centres undefined) | > 100 | > 100 | > 100 | > 100 | > 100 | > 100 | Active
8 | CC(=O)NC1=NN(C(C)=O)C(c2cc3cc(C)ccc3n3nnnc23)S1 (centres undefined) | 81.3 | > 100 | > 100 | > 100 | > 100 | > 100 | Active
9 | CC(=O)NC1=NN(C(C)=O)C(c2cc3cc(Cl)ccc3n3nnnc23)S1 (centres undefined) | < 0.1 | > 100 | > 100 | > 100 | > 100 | > 100 | Active
10 | COc1cc2cc(C3SC(NC(C)=O)=NN3C(C)=O)c3nnnn3c2cc1OC (centres undefined) | > 100 | > 100 | > 100 | > 100 | > 100 | > 100 | Active
11 | CC(=O)NC1=NN(C(C)=O)C(c2cc3cc(Br)ccc3n3nnnc23)S1 (centres undefined) | < 0.1 | > 100 | > 100 | > 100 | > 100 | > 100 | Active
